{
  "source": "patent US10267797B2",
  "about": "“Detection of oral microbial virulence factors” (The Procter & Gamble Company, priority 2015, dated 2019)",
  "key": {"[1]": {"test_system": "THP-1 cells stimulated by P. gingivalis LPS 1690", "assay": "Inhibition of LPS stimulated cytokine production in THP-1 cells", "format": "cell-based, human", "conditions": "0.3 mM to 9 mM citrulline; 300 ng/ml LPS; 24 hours; IL-6, TNF-α, IL-12p70, IL-10, IL-2, IFN-r, IL-1β (FIG. 26)", "protocol": "Citrulline was purchased from Sigma-Aldrich (St. Louis, Mo.). THP1-Dual™ cells were purchased from Invivogen (San Diego, Calif.). Cells were cultured following the manufacturer's instruction, as described in EXAMPLE 11. For treatment, 0.3 mM to 9 mM of citrulline were first added to the culture medium. […] After 24 hours of treatment, media was collected and analyzed for cytokine production using 9-plex kit (Meso Scale Diagnostics Rockville, Md.)."}, "TLR2": {"molecular_target": "TLR2 (Homo sapiens, UniProt O60603)", "sequence (O60603 21-784)": "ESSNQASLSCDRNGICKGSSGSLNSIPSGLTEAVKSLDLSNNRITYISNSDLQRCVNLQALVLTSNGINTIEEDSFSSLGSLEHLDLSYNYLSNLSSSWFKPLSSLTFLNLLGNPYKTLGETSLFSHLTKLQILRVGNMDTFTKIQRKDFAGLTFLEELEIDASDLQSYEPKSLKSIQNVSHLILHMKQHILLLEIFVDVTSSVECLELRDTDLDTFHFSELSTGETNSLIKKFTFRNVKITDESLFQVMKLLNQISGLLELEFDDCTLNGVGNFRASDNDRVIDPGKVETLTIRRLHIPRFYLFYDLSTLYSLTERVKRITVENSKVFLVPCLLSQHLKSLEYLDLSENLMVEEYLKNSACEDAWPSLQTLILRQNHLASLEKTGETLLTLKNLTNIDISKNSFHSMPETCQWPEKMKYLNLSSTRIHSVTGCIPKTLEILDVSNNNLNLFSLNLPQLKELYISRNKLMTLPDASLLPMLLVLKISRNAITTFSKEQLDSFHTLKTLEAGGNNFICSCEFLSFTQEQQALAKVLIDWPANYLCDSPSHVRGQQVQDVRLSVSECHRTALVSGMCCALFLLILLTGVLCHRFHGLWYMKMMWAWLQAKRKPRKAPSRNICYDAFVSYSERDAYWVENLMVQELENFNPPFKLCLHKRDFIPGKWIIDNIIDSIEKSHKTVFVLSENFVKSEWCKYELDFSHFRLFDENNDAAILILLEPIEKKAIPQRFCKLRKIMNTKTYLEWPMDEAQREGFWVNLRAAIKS", "assay": "TLR2-SEAP reporter gene assay in HEK 293T cells", "conditions": "P. gingivalis LPS; stannous 1000 uM (FIG. 4)", "from_the_text": "The cell line is named here as TLR2-SEAP. The reporter gene encodes a secreted enzyme, called embryonic alkaline phosphatase or SEAP. The SEAP reporter is placed under the control of the interferon-β minimal promoter fused to five NFkB and AP-1-binding sites. Furthermore, a CD14 co-receptor gene was transfected into the reporter gene cells expressing TLR2, as CD14 has been identified as a co-receptor for TLR2 ligands to enhance the TLR response. The CD14 co-receptor is needed to transfer LTA to TLR2 receptors. The recombinant TLR2 binds its ligand, or distinct pathogen-associated molecule, initiates a chain of responses, leading to recruitment of NFkB and AP1 transcription factors to the reporter gene promoter, which induce expression of SEAP.\nFor treatment with LTA, wells of a 96-well plate were seeded with 10,000 cells/well in 100 μL of growth medium. […] On day 4, medium (100 μL) was changed to DMEM medium without fetal calf serum. […] Samples were taken 24 hours later, following addition of samples. Expression of the reporter gene (SEAP) was quantified with a commercially available kit (SEAP Reporter Gene Assay of Cayman Chemical Co., Ann Arbor, Mich.)."}, "E. coli LPS": {"test_system": "E. coli LPS", "conditions": "0.63 mM; E. coli LPS 15 μg/ml"}, "TLR4": {"molecular_target": "T1, TLR4 (Homo sapiens, UniProt O00206+Q9Y6Y9)", "T1 construct": "host or cells: HEK 293T (HEK-Blue hTLR4)", "T1 sequence (Q9Y6Y9 17-160)": "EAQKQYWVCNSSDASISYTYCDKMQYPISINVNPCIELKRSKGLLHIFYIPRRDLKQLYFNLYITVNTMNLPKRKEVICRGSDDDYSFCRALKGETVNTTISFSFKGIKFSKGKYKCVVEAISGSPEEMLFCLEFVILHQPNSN", "T1 sequence (O00206 24-839)": "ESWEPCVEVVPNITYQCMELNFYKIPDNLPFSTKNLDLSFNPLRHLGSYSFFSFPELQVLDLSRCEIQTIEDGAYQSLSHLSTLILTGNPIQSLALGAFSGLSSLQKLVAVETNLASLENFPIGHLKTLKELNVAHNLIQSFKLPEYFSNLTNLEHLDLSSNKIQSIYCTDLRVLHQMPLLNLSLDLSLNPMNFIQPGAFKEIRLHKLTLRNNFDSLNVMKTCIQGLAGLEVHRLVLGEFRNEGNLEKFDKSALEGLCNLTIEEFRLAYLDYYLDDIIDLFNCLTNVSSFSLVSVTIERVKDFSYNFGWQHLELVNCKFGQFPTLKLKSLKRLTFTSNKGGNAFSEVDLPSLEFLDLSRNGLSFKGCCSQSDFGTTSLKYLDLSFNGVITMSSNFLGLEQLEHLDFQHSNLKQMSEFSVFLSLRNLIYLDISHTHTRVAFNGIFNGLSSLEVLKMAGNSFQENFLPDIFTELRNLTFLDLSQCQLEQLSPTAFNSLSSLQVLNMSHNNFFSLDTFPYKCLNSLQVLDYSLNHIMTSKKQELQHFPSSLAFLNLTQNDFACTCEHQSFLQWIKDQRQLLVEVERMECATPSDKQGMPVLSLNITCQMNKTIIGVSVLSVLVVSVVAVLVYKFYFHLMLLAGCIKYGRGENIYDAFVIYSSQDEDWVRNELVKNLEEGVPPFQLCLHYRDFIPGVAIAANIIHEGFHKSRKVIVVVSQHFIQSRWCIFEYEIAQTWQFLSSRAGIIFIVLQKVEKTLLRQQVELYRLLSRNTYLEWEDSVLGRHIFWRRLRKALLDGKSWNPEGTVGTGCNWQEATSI", "format": "cell-based", "conditions": "for reduction of P. gingivalis LPS activation on the TLR4 reporter system: P. gingivalis LPS 500 ng/ml", "from_the_text": "The cell line is named here as TLR4-SEAP. The reporter gene encodes a secreted enzyme, called embryonic alkaline phosphatase or SEAP. The SEAP reporter is placed under the control of the interferon-β minimal promoter fused to five NFkB and AP-1-binding sites. Furthermore, the TLR4-SEAP cell line also contains a CD14 co-receptor gene, which is needed to transfer LPS to TLR4 receptors. The recombinant TLR binds its ligand, or distinct pathogen-associated molecule, initiates a chain of responses, leading to recruitment of NFkB and AP1 transcription factors to the reporter gene promoter, which induce expression of SEAP.\nFor treatment, wells of a 96-well plate were seeded with 10,000 cells/well in 100 μL of growth medium. […] On day 4, medium was changed to assay medium (90 μl), which is the DMEM medium without fetal calf serum. […] 10 μl of the bacteria, LPS and culture medium of bacterial growth were added to the TLR4-SEAP cells. Samples were taken 24 hours later, following addition of LPS, bacteria, and culture medium. Expression of the reporter gene (SEAP) was quantified with a commercially available kit (SEAP Reporter Gene Assay of Cayman Chemical Co., Ann Arbor, Mich.).\nEC50 was calculated using GraphPad Prism software (GraphPad Software, La Jolla, Calif.).\nTests were conducted to understand whether stannous fluoride could reduce LPS's ability to trigger proinflammatory responses in host cells."}},
  "note": "Like-named read-outs stand apart in the source and are kept apart here.",
  "data": [
    {"smiles": "NC(=O)NCCC[C@H](N)C(=O)O", "note": "[Citrulline]", "values": [
      {"measurement": "effect on P. gingivalis LPS 1690 stimulated proinflammatory cytokine production", "setting": "[1]", "value": "inhibited"}
    ]},
    {"smiles": "[F][Sn][F]", "note": "[Tin (II) fluoride]", "values": [
      {"measurement": "level of P. gingivalis induction of TLR-2", "setting": "TLR2", "value": "decreased"},
      {"measurement": "Displacement %", "setting": "E. coli LPS", "value": 12.69, "unit": "%"},
      {"measurement": "level of E. coli induction of TLR-4", "setting": "TLR4; 100 ng/ml E. coli LPS, stannous 500 uM or higher (FIG. 3)", "value": "decreased"},
      {"measurement": "reduction of P. gingivalis LPS activation on the TLR4 reporter system", "setting": "TLR4; 3.2 mM (FIG. 5)", "value": "about 50%"},
      {"measurement": "reduction of P. gingivalis LPS activation on the TLR4 reporter system", "setting": "TLR4; […] (FIG. 5)", "value": "about 50%"}
    ]}
  ]
}
